Measured values taken from patent US5871779A, “Treatment of arthropathies with vanadate compounds or analogues thereof” (Mount Sinai Hospital Corporation, priority 1996, dated 1999).
Entries after “also recorded” stand apart in the source; their conditions may differ.

Legend:
tumor growth = tumor growth in vivo, orthovanadate and N-acetylcysteine (Example 7); set-up: species or system mice; settings: combination with orthovanadate
Description: Since N-acetylcysteine is converted to glutathione in cells, higher levels of glutathione may not only reduce orthovanadate induced toxicity but may also reduce tumor formation.
Twenty mice were injected subcutaneously with 2×10^5 cells on Day 1. At day 4, the mice were divided into four groups of five mice. Group one (control) received subcutaneous injections of 50 μl of water. Group two received daily intraperitoneal injections of 50 μl of 250 mM N-acetylcysteine. Group three received daily subcutaneous injections of 50 μl of 10 mg/ml of orthovanadate. Group four received daily intraperitoneal injections of 50 μl of […] N-acetylcysteine and 20 minutes later received 50 μl of subcutaneous injection of 50 μl of 10 mg/ml of orthovanadate. On day 10 the treatment was stopped. The animals were sacrificed on Day 13 and analyzed for tumor growth.

c-fos = experiment: TNFα and bFGF induced c-fos mRNA in chondrocytes (Northern blot); assay type: cell-based, bovine; settings: 30 mM, 2 hours preincubation
Description: Chondrocyte cultures were stimulated with H2 O2 (100 μM) at different time points as indicated. […] Chondrocyte cultures were preincubated with NAC (30 mM) or Asc (100 μM) for 2 hours before the addition of bFGF (10 ng/ml) or TNFα (30 ng/ml) for 30 minutes. Both human recombinant TNFα and bFGF were dissolved in phosphate buffered saline with 0.1% bovine serum albumin. NAC and Asc were first dissolved in Ham's F12 medium containing 5% (v/v) fetal bovine serum, then neutralized with sodium hydroxide. Total RNA from bovine articular chondrocytes was isolated and the c-fos mRNA levels were determined by Northern blot analysis as described herein. The blots were subsequently stripped of DNA and re-probed with ^32 p-labelled rat β tubulin cDNA.
Chondrocyte cultures were pretreated with DPI (2 μM) for 30 minutes before the addition of TNFα (30 ng/ml) or bFGF (10 ng/ml) for 30 minutes. Measurements of c-fos and tubulin mRNA levels were as described in Example 11.

collagenase [1] = experiment: collagenase mRNA expression in chondrocytes (Northern blot); assay type: cell-based, bovine; settings: in the presence of IL 1; N-acetylcysteine 20 mM for 20 min
From the text: (§1) The cytokine interleukin 1 (IL 1) has been used to identify the intermediate second messengers which regulate the expression of fos and jun.
Although IL 1 stimulated superoxide production, it was not known whether IL 1 induced fos and jun expression was dependent on the production of superoxides. In order to elucidate this possibility, the effect of DPI on fos and jun mRNA levels induced by IL 1 was investigated. RNA from chondrocytes treated with IL 1 in the presence and absence of DPI were analyzed by Northern blot analysis using either fos or collagenase cDNA probes. […] Similar data has been obtained for IL 1 induced jun expression. Furthermore, inhibition of fos and jun expression by DPI was sufficient to suppress IL 1 induced and constitutive collagenase expression.
Cells were also incubated as described above with 20 mM N-acetylcysteine for 20 min. and then incubated with IL 1 for an additional 1 or 12 hours. The RNA was extracted and examined by Northern blot analysis using cDNA probes for c-fos and collagenase. N-acetylcysteine which is converted to GSH intracellularly was also found to reduce the levels of fos and collagenase expression in response to IL 1 (FIG. 5). Presumably the higher intracellular levels of GSH reduced H2 O2 and superoxide levels and suppressed the induction of fos and collagenase expression.

collagenase [2] = experiment: collagenase production by chondrocytes (ELISA); assay type: cell-based, bovine; settings: summary statement
Description: The effect of orthovanadate and N-acetylcysteine on fos, jun and collagenase expression were examined. Bovine articular chondrocytes were isolated and plated as previously described (Kandel R. A. et al. Biochim. Biophys. Acta. 1053, 130-134, 1990). In order to determine the effect of orthovanadate on IL 1 and PMA (phorbol ester) induced responses, chondrocytes were incubated with orthovanadate (100 μM) for 2 hours before stimulation with IL 1 (10 ng/ml) or PMA ([…]). Collagenase production was determined by incubating chondrocytes for 24 hours with IL 1 or PMA and the cell conditioned medium was assayed for collagenase activity using an ELISA procedure as described previously (Kandel et al. supra). PLA2 activity was measured by incorporating ^3 H-arachidonic acid (^3 H-AA) into the cells and then incubating the cells with medium containing 1 mg/ml BSA, either alone or in the presence of IL 1 or PMA, for 10 min. as previously described (Conquer, J. A. […], Biochim. Biophys. Acta. 1134, 1-6). The amount of ^3 H-AA liberated into the supernatant was determined. To measure PGE2 production, chondrocytes were incubated for 6 hours in Ham's F12 medium, either alone or with IL 1 or PMA. The supernatant was analyzed by RIA using an antibody specific for PGE2 (Dr. S. A. Jones, Mount Sinai Hospital, Toronto, Canada). In order to examine the expression of c-fos and c-jun, chondrocytes were incubated for 1 hour in the presence of IL-1, PMA or AA (3 μM). Chondrocytes were washed in PBS and the total RNA extracted as previously described (Cruz. et al, 1991, Biochem. J. 277, 327-330). RNA samples were run on formaldehyde agarose gels and transferred to nylon membrane for northern analysis using cDNA probes for c-fos and c-jun.

fos = fos / c-fos mRNA expression in chondrocytes (Northern blot); assay type: cell-based, bovine; settings: in the presence of IL 1; N-acetylcysteine 20 mM for 20 min
Description: as §1
In order to elucidate this possibility, the effect of DPI on fos and jun mRNA levels induced by IL 1 was investigated. RNA from chondrocytes treated with IL 1 in the presence and absence of DPI were analyzed by Northern blot analysis using either fos or collagenase cDNA probes.
Since superoxides are rapidly converted to hydrogen peroxide in the cell by superoxide dismutase, whether hydrogen peroxide could mimic the effect of IL 1 in the induction of fos expression was investigated. RNA was extracted from chondrocytes (Kandel et al. supra) treated with H2 O2 for 30, 60 and 90 minutes and examined by Northern blot analysis using a fos cDNA probe.
Bovine articular chondrocytes were isolated and plated as previously described (Kandel R. A. et al. Biochim. Biophys. Acta. 1053, 130-134, 1990). […] The amount of ^3 H-AA liberated into the supernatant was determined. To measure PGE2 production, chondrocytes were incubated for 6 hours in Ham's F12 medium, either alone or with IL 1 or PMA. […] In order to examine the expression of c-fos and c-jun, chondrocytes were incubated for 1 hour in the presence of IL-1, PMA or AA (3 μM). Chondrocytes were washed in PBS and the total RNA extracted as previously described (Cruz. et al, 1991, Biochem. J. 277, 327-330). RNA samples were run on formaldehyde agarose gels and transferred to nylon membrane for northern analysis using cDNA probes for c-fos and c-jun.
The RNA was extracted and examined by Northern blot analysis using cDNA probes for c-fos and collagenase.

[3] = test system: collagen induced arthritis; experiment: collagen induced arthritis, clinical arthritis score; assay type: in vivo, rats; settings: NAC 100 mg/kg/day s.c.; listed as NAC
Description: Syngeneic 8 week old female Louvain (LOU) rats were fed with standard lab chow and housed in the vivarium at the University of California, Los Angeles. […] E. et al., J. Exp. Med., 146: 857-868, 1977). […] Rats with definite arthritis on Day 10 post immunization were randomized into two groups. Control rats (n=8) received only NAC at a dose of 100 mg/kg/day s.c. NAC was prepared as a 3% aqueous solution. […] Clinical arthritis severity of each limb was scored daily based on an objective integer scale of 0-4 (Trentham, D. E. et al., J. Exp. Med., 146: 857-868, 1977). A score of 0 indicated an unaffected limb, while a score of 4 represented fulminant erythema and edema involving distal digits. The arthritic index of a rat is defined as the sum of its four limb scores. Since CIA typically involves only the hind limbs, an arthritic index of 6 to 8 is considered severe arthritis.

Compound: CC(=O)N[C@@H](CS)C(=O)O [N-acetylcysteine]
- toxic effects observed with orthovanadate alone (tumor growth): reduce the slight toxic effects
- inhibition of TNFα and bFGF induced c-fos mRNA levels (c-fos): inhibit
- IL 1 induction of collagenase (collagenase [1]): reduce
- production of metalloproteases, such as collagenase (collagenase [2]): inhibit
- IL 1 induction of fos (fos): reduce
- arthritis development / clinical severity, NAC alone [3]: developed severe arthritis; also recorded: no appreciable effect
